Experimental findings from patent US10806746B2, “Di- and tri-cationic glycosylated antitumor ether lipids, L-gucosylated gaels and rhamnose-linked gaels as cytotoxic agents against epithelial cancer cells and cancer stem cells” (The University of Manitoba, priority 2014, dated 2020) are described below.

Each structure is given as a SMILES string. Like-named read-outs stand apart in the source and are kept apart here.

Holding throughout (assay type): cell-based, human
One data set concerns MDA-MB-231 cells. The data set is described as follows: MTS viability assay, MDA-MB-231 breast cancer cells. On the procedure: FIG. 2A. Effects of compounds 1-11 on the viability of MDA-MB231 cells. MDA-MB-231 cells were cultured in DMEM medium supplemented with 10% FBS. Equal numbers were dispersed into 96-well plates. After 24 h, the cells were incubated with compounds 1-11 (0-30 μM) for 48 h. At the end of the incubation, MTS reagent (20% vol/vol) was added and the plates were incubated for 1-4 h. The OD490 was read with a plate reader. Wells with media but no cells were treated in similar fashion and the values utilized as blank. The results represent the mean±standard deviation of 6 independent determinations.
(§1) FIG. 2K. Effects of compounds 1, 69-72 on the viability of MDA-MB-231 cells. MDA-MB-231 cells were cultured in DMEM medium supplemented with 10% FBS. Equal numbers were dispersed into 96-well plates. After 24 h, the cells were incubated with compounds 1, 69-72 for 48 h. At the end of the incubation, MTS reagent (20% vol/vol) was added and the plates were incubated for 1-4 h. The OD490 was read with a plate reader. Wells with media but no cells were treated in similar fashion and the values utilized as blank. The results represent the mean±standard deviation of 6 independent determinations.
(§2) The cell lines were cultured from frozen stocks originally obtained from ATCC. MDA-MB-231, JIMT-1, DU145, U81, U251 cells were grown in DMEM medium. BT474, A2780s, A2780cp cells were grown in DMEM/F12 medium supplemented with 10% FBS. MiaPaCa2 was cultured in DMEM supplemented with 10% FBS and 2.5% horse serum. PC3 cells were cultured in F12K medium supplemented with 10% FBS. All the media were supplemented with penicillin/streptomycin.
(§3) The effects of the GAELs on the viability of the various epithelial cancer cell lines was determined as previously described. Briefly, equal numbers of the cells were dispersed into 96-well plates. After 24 h, the cells were incubated with the compounds (0-30 μM) for 48 h. At the end of the incubation, MTS reagent (20% vol/vol) was added and the plates were incubated for 1-4 h. The OD490 was read with a plate reader. Wells with media but no cells were treated in similar fashion and the values utilized as blank. The results represent the mean±standard deviation of 6 independent determinations.

A further data set concerns DU145 cells. Put plainly: MTS viability assay, DU145 prostate cancer cells. On the procedure: (§4) FIG. 2D. Effects of compounds 1-11 on the viability of DU145 cells. DU145 cells were cultured in DMEM medium supplemented with 10% FBS. Equal numbers were dispersed into 96-well plates. After 24 h, the cells were incubated with compounds 1-11 (0-30 μM) for 48 h. At the end of the incubation, MTS reagent (20% vol/vol) was added and the plates were incubated for 1-4 h. The OD490 was read with a plate reader. Wells with media but no cells were treated in similar fashion and the values utilized as blank. The results represent the mean±standard deviation of 6 independent determinations.
FIG. 2H. Effect of compounds 1, 69-72 on the viability of DU145 cells. DU145 cells were cultured in DMEM medium supplemented with 10% FBS. Equal numbers were dispersed into 96-well plates. After 24 h, the cells were incubated with compounds 1, 69-72 for 48 h. At the end of the incubation, MTS reagent (20% vol/vol) was added and the plates were incubated for 1-4 h. The OD490 was read with a plate reader. Wells with media but no cells were treated in similar fashion and the values utilized as blank. The results represent the mean±standard deviation of 6 independent determinations.
as §2, §3

In another data set the test system is JIMT-1 cells. Put plainly: MTS viability assay, JIMT-1 breast cancer cells. The method, then: FIG. 2B. Effects of compounds 1-11 on the viability of JIMT-1 cells. JIMT-1 cells were cultured in DMEM medium supplemented with 10% FBS. Equal numbers were dispersed into 96-well plates. After 24 h, the cells were incubated with compounds 1-11 (0-30 μM) for 48 h. At the end of the incubation, MTS reagent (20% vol/vol) was added and the plates were incubated for 1-4 h. The OD490 was read with a plate reader. Wells with media but no cells were treated in similar fashion and the values utilized as blank. The results represent the mean±standard deviation of 6 independent determinations.
FIG. 2J. Effects of compounds 1, 69-72 on the viability of JIMT-1 cells. JIMT-1 cells were cultured in DMEM medium supplemented with 10% FBS. Equal numbers were dispersed into 96-well plates. After 24 h, the cells were incubated with compounds 1, 69-72 for 48 h. At the end of the incubation, MTS reagent (20% vol/vol) was added and the plates were incubated for 1-4 h. The OD490 was read with a plate reader. Wells with media but no cells were treated in similar fashion and the values utilized as blank. The results represent the mean±standard deviation of 6 independent determinations.
as §2, §3

The test system of a further data set is MiaPaCa2 cells. Put plainly: MTS viability assay, MiaPaCa2 pancreas cancer cells. The method, then: as §4, with “2F.” for “2D.”, “MiaPaCa2” for “DU145”, “FBS and 2.5% horse serum.” for “FBS.”
as §1, with “2I.” for “2K.”, “MiaPaCa2” for “MDA-MB-231”, “FBS and 2.5% horse serum.” for “FBS.”
as §2, §3

For the next data set, the system named is PC3 cells. Put plainly: MTS viability assay, PC3 prostate cancer cells. Particulars: 48 h, MTS. The method, then:
FIG. 2E. Effects of compounds 1-11 on the viability of PC3 cells. PC3 cells were cultured in F12K medium supplemented with 10% FBS. Equal numbers were dispersed into 96-well plates. After 24 h, the cells were incubated with compounds 1-11 (0-30 μM) for 48 h. At the end of the incubation, MTS reagent (20% vol/vol) was added and the plates were incubated for 1-4 h. The OD490 was read with a plate reader. Wells with media but no cells were treated in similar fashion and the values utilized as blank. The results represent the mean±standard deviation of 6 independent determinations.
as §2, §3

Another data set relates to BT-474 cells. Put plainly: MTS viability assay, BT-474 breast cancer cells. Particulars: 48 h, MTS. On the procedure:
FIG. 2C. Effects of compounds 1-11 on the viability of BT-474 cells. BT-474 cells were cultured in DMEM/F12 medium supplemented with 10% FBS. Equal numbers were dispersed into 96-well plates. After 24 h, the cells were incubated with compounds 1-11 (0-30 μM) for 48 h. At the end of the incubation, MTS reagent (20% vol/vol) was added and the plates were incubated for 1-4 h. The OD490 was read with a plate reader. Wells with media but no cells were treated in similar fashion and the values utilized as blank. The results represent the mean±standard deviation of 6 independent determinations.
as §2, §3

Setting [1] is: Table 5, 48 h, read-out: CC50 MDA-MB-231.
Where [2] appears, read: Table 5, 48 h, read-out: CC90 MDA-MB-231.
Where [3] appears, read: Table 5, 48 h, read-out: CC50 DU-145.
Setting [4] is: Table 5, 48 h, read-out: CC90 DU-145.
Setting [5] is: Table 5, 48 h, read-out: CC50 JIMT1.
Where [6] appears, read: Table 5, 48 h, read-out: CC90 JIMT1.
The mark [7] stands for this setting: Table 5, 48 h, read-out: CC50 Mlapaca2.
Setting [8] is: Table 5, 48 h, read-out: CC90 Mlapaca2.
Where [9] appears, read: Table 1A, 48 h, read-out: CC50 values MD 231.
Where [10] appears, read: Table 1B, 48 h, read-out: CC90 values MD 231.
Setting [11] is: Table 1A, 48 h, read-out: CC50 values DU 145.
The mark [12] stands for this setting: Table 1B, 48 h, read-out: CC90 values DU 145.
Setting [13] is: Table 1A, 48 h, read-out: CC50 values JIMT1.
Setting [14] is: Table 1B, 48 h, read-out: CC90 values JIMT1.
Setting [15] is: Table 1A, 48 h, read-out: CC50 values MiaPaCa2.
Setting [16] is: Table 1B, 48 h, read-out: CC90 values MiaPaCa2.
[17] abbreviates: Table 1A, read-out: CC50 values PC3.
[18] abbreviates: Table 1B, read-out: CC90 values PC3.

Consider `CCCCCCCCCCCCCCCCOC[C@H](CO[C@H]1O[C@@H](CN)[C@H](OCc2ccccc2)[C@@H](O)[C@@H]1N)OC` [Compound 70, 1-O-Hexadecyl-2-O-methyl-3-O-(4′-benzyl-2′,6′-diamino-2′,6′-dideoxy-β-L-glucopyranosyl)-sn-glycerol], for which the CC50 in the data set with MDA-MB-231 cells (setting [1]) came to 4 µM; in the data set on DU145 cells (setting [3]), 3.6 µM; with JIMT-1 cells (setting [5]) it was 2 µM; with MiaPaCa2 cells (setting [7]) it was 5 µM. For the same molecule, the CC90 worked out at 4.9 µM with MDA-MB-231 cells (setting [2]), 4.9 µM in the data set on DU145 cells (setting [4]), 3.5 µM with JIMT-1 cells (setting [6]) and 7.1 µM in the data set on MiaPaCa2 cells (setting [8]).

Take `CCCCCCCCCCCCCCCCOCC(N)CO[C@H]1O[C@H](CO)[C@@H](O)[C@H](O)[C@H]1N` (stereo partly drawn) [Compound 8, 1-O-Hexadecyloxy-2S/R-amino-3-(-2′-amino-2′-deoxy-α-D-glucopyranosyl)-glycerol]: the half-maximal cytotoxic concentration (CC50) turned out to be 6 µM in the data set with MDA-MB-231 cells (setting [9]); 6 µM in the data set on DU145 cells (setting [11]); 5.5 µM with JIMT-1 cells (setting [13]); 8.5 µM with MiaPaCa2 cells (setting [15]); 9 µM in the data set with PC3 cells (setting [17]); 15.5 µM in the data set with BT-474 cells (Table 1A, read-out: CC50 values BT474). Moreover, the CC90 in the data set with MDA-MB-231 cells (setting [10]) came to 9 µM; with DU145 cells (setting [12]), 9 µM; in the data set with JIMT-1 cells (setting [14]), 7.5 µM; with MiaPaCa2 cells (setting [16]), 14 µM; in the data set on PC3 cells (setting [18]) it was 14 µM; in the data set with BT-474 cells (Table 1B, read-out: CC90 values BT474), 28 µM.

`CCCCCCCCCCCCCCCCOC[C@H](COC1O[C@H](CN)[C@@H](O)[C@H](O)[C@H]1NCCCN)OC` (stereo partly shown) [Compound 76, 1-O-Hexadecyl-2-O-methyl-3-O-[2′-N-(3-aminopropyl)-2′,6′-diamino-2′,6′-dideoxy-glucopyranoside]-sn-glycerol]: the cytotoxic concentration (CC50) is 17.5 µM in the data set on MDA-MB-231 cells (Table 6, 48 h, read-out: MB-MDA-231 CC50); 18.5 µM in the data set on DU145 cells (Table 6, 48 h, read-out: DU145 CC50); 12.5 µM in the data set with JIMT-1 cells (Table 6, 48 h, read-out: JIMT1 CC50); 14.5 µM in the data set with MiaPaCa2 cells (Table 6, 48 h, read-out: MiaPaCa2 CC50); 14.5 µM in the data set with PC3 cells (Table 6, read-out: PC3 CC50); over 20 µM in the data set with BT-474 cells (Table 6, read-out: BT474 CC50). Moreover, the CC90 in the data set with MDA-MB-231 cells (Table 6, 48 h, read-out: MB-MDA-231 CC90) is over 20 µM; in the data set on DU145 cells (Table 6, 48 h, read-out: DU145 CC90), over 20 µM; in the data set with JIMT-1 cells (Table 6, 48 h, read-out: JIMT1 CC90), 16.5 µM; with MiaPaCa2 cells (Table 6, 48 h, read-out: MiaPaCa2 CC90), over 20 µM; with PC3 cells (Table 6, read-out: PC3 CC90), over 20 µM; with BT-474 cells (Table 6, read-out: BT474 CC90), over 20 µM.

As to `CCCCCCCCCCCCCCCCOC[C@H](CO[C@@H]1O[C@@H](CN)[C@H](OCc2ccccc2)[C@@H](O)[C@@H]1N)OC` [Compound 72, 1-O-Hexadecyl-2-O-methyl-3-O-(4′-benzyl-2′,6′-diamino-2′,6′-dideoxy-α-L-glucopyranosyl)-sn-glycerol], the CC50 in the data set with MDA-MB-231 cells (setting [1]) was 4 µM; in the data set on DU145 cells (setting [3]), 3.6 µM; in the data set on JIMT-1 cells (setting [5]), 2 µM; with MiaPaCa2 cells (setting [7]), 4.5 µM. Also, the CC90 came out at 4.9 µM in the data set on MDA-MB-231 cells (setting [2]), 4.9 µM in the data set on DU145 cells (setting [4]), 3.5 µM in the data set with JIMT-1 cells (setting [6]) and 7 µM in the data set on MiaPaCa2 cells (setting [8]).

`CCCCCCCCCCCCCCCCOC[C@H](CO[C@@H]1O[C@@H](CN)[C@H](O)[C@@H](O)[C@@H]1N)OC` [Compound 71, 1-O-Hexadecyl-2-O-methyl-3-O-(2′,6′-diamino-2′,6′-dideoxy-α-L-glucopyranosyl)-sn-glycerol]: the CC50 in the data set with MDA-MB-231 cells (setting [1]) is 5.5 µM; in the data set on DU145 cells (setting [3]), 6 µM; with JIMT-1 cells (setting [5]) it was 4 µM; with MiaPaCa2 cells (setting [7]) it was 6 µM. The CC90 is 7.5 µM in the data set with MDA-MB-231 cells (setting [2]), 8 µM in the data set on DU145 cells (setting [4]), 6.5 µM in the data set on JIMT-1 cells (setting [6]) and 15 µM in the data set on MiaPaCa2 cells (setting [8]).

Turning to `CCCCCCCCCCCCCCCCOC[C@H](CO[C@H]1O[C@H](CN)[C@@H](O)[C@H](O)[C@H]1N1C(=O)c2ccccc2C1=O)OC` [Compound 3, 1-O-Hexadecyl-2-O-methyl-3-O-(-2′-N-phthalimido-6′-amino-2′,6′-dideoxy-δ-D-glucopyranosyl)-sn-glycerol], the 50% cytotoxic concentration (CC50) in the data set on MDA-MB-231 cells (setting [9]) was 20 µM; in the data set on DU145 cells (setting [11]), over 30 µM; in the data set on JIMT-1 cells (setting [13]), over 30 µM; with MiaPaCa2 cells (setting [15]), over 30 µM; in the data set with PC3 cells (setting [17]), 15 µM. Further, the CC90 is over 30 µM in the data set with MDA-MB-231 cells (setting [10]); over 30 µM with DU145 cells (setting [12]); over 30 µM in the data set on JIMT-1 cells (setting [14]); over 30 µM with MiaPaCa2 cells (setting [16]); 30 µM in the data set on PC3 cells (setting [18]).
